Read-outs that look alike come from different tables or passages of the source.
Tests used:
[1] = test system: amelanotic melanoma (C-32) cells; assay: WST-1 cell viability assay, C-32; assay type: cell-based, human; details: Homo sapiens, C32, 72 h, WST-1, 72 h
Method: (§1) Evaluation of the effect of new betulin derivatives on the viability of the cultured cells was performed using the WST-1(water soluble tetrazolium salt) assay. Betulin 1 and cisplatin were used as the reference compounds.
(§2) The synthesized compounds and references were tested for cytotoxic activity in vitro against human cancer cell lines such as amelanotic melanoma (C-32, ATCC, Rockville, MD, USA), glioblastoma (SNB-19, DSMZ, Braunschweig, Germany), and breast cancer (T47D, and MDA-MB-231, ATCC, Rockville, MD, USA). Cell cultures were maintained using DMEM (Lonza, Basel, Switzerland) supplemented with 10% fetal bovine serum (FBS) (Biological Industries Cromwell, CT, USA) and penicillin (10,000 U/mL) –streptomycin (10 mg/mL) mix (Lonza, Basel, Switzerland).
(§3) Cultures were performed in 96-well plates (Nunc Thermo Fisher Scientific, Waltham, MA, USA). Cells were seeded at 5 × 10^4/well and incubated for 24 h (at 37 °C, 5% CO2, constant humidity). Then, the medium was replaced with a fresh one with the addition of test compounds in the concentration: 25; 12.5; 6.25; 3.12; 1.56; 0.78; 0.39; 0 µg/mL and incubated again for a further 72 h. After this time, the WST-1 test (Roche Molecular Biochemicals, Mannheim, Germany) was performed to assess the metabolic activity of the cells. The principle of the WST-1 colorimetric test is based on the ability of live cells to decompose bright red tetrazole salts of WST-1 to dark red formazan. The reaction is mediated by mitochondrial dehydrogenases and correlates with the number of cells and their metabolic activity. The absorbance was measured at λ = 450 nm with a UVM340 microplate reader (Biogenet, Józefów, Poland). Results were expressed as a mean value of at least three independent experiments performed in triplicate.

[2] = test system: glioblastoma (SNB-19) cells; assay: WST-1 cell viability assay, SNB-19; assay type: cell-based, human; details: Homo sapiens, SNB-19, 72 h, WST-1, 72 h
Method: as §1, §2, §3

breast cancer T47D cells = assay: WST-1 cell viability assay, T47D; assay type: cell-based, human; details: for IC50: Homo sapiens, T47D, 72 h, read-out: IC50 ± SD, T47D
Method: as §1, §2, §3

[3] = test system: breast cancer MDA-MB-231 cells; assay: WST-1 cell viability assay, MDA-MB-231; assay type: cell-based, human; details: for IC50: Homo sapiens, MDA-MB-231, 72 h, read-out: IC50 ± SD, MDA-MB-231
Method: as §1, §2, §3

[4] = RP-TLC experimental lipophilicity; assay type: physicochemical; details: for RM0 / logPTLC: RP-TLC; for RM0: acetone/Tris buffer pH 7.4, extrapolated to zero acetone; for logPTLC: from RM0 by calibration equation; for -b: slope of regression plot RM = RM0 + bC
Text: Lipophilicity is an important physicochemical parameter related to the biological activity of compounds. This descriptor, contained in Lipiński’s rule of five, concerns the transport of a compound through the biological membrane system and the formation of a compound–receptor complex. To assess the lipophilic nature of triterpenoids 3–5, 6a–6e, and 7a–7e, the reverse phase chromatography (RP-TLC) method was used (chromatographic procedure by RP-TLC is included in the Supplementary Materials). The theoretical characteristics of the chromatographic parameters (RM0, log PTLC) of the tested derivatives were also performed. […]
Chromatographic procedure by RP-TLC
The experimental lipophilicity parameters was determined using reversed-phase thin-layer chromatography (RP-TLC). The stationary phase was an aluminium backed silica gel RP-18 F254 S plates (Merck, Darmstadt, Germany). Chloroform solutions of reference compounds […]
(acetanilide, 4-bromoacetophenone, benzophenone, anthracene, DDT) and triterpenes 3-5, 6a-6e and 7a-7e were spotted on to the plates in the amount of 2 µL. The chromatograms were performed in triplicate for each compound. The chromatographic chambers were filled of mobile phases consisting of a mixture of acetone (POCh, Gliwice, Poland) and aqueous solution of buffer Tris [(tris-hydroxymethyl)aminomethane] (Fluka, Loughborough, 0.2 M, pH 7.4). The percent acetone volume was varied within the range of 90-60%, in 5% increments. The spots of compounds were visualized by spraying the plates with 10% ethanolic solution of sulphuric acid (VI) and heating for 3 min at 110°C [60]]. The RM values were calculated by the equation RM = log (1/Rf-1) on the basis of average Rf values. The RM0 parameters were obtained by extrapolating on the acetone content to zero, according to the equation RM = RM0 + bC (C – the percentage concentration of acetone in the mobile phase, b – the slope of the regression plot).
The experimental lipophilicity as log PTLC for triterpenes 3-5, 6a-6e and 7a-7e was calculated […]
obtained on the correlation between the literature log Plit values and the experimental RM0 values […]
Table S5. The theoretical values of lipophilicity for tested compounds 3-5, 6a-6e and 7a- […]
Table S6. The correlation matrix for theoretically obtained lipophilicity parameters of compounds 3-5, 6a-6e and 7a-7e. […]

[5] = Table 5, betulonic/betulinic acid derivatives, read-out: IC50, C-32
[6] = Table 5, betulonic/betulinic acid derivatives, read-out: IC50, SNB-19

| Structure (SMILES) | IC50 ([1]; read-out: IC50 ± SD, C-32) [µM] | IC50 ([2]; read-out: IC50 ± SD, SNB-19) [µM] | IC50 (breast cancer T47D cells) [µM] | IC50 [3] [µM] | RM0 [4] | logPTLC [4] | -b [4] | melting point [°C] | IC50 [1, 5] [µM] | IC50 [2, 6] [µM] | activity against T47D (in words) (breast cancer T47D cells) | activity against MDA-MB-231 (in words) [3] |
| --- | --- | --- | --- | --- | --- | --- | --- | --- | --- | --- | --- | --- |
| C=C(COP(=O)(OCC)OCC)[C@@H]1CC[C@]2(COC(=O)C#Cc3ccccc3)CC[C@]3(C)C(CCC4[C@@]5(C)CC[C@H](O)C(C)(C)C5CC[C@]43C)C12 (some centres unmarked) [Compound 7d, 30-Diethoxyphosphoryloxy-28-(2-phenylpropynoyl)betulin] | 6.9 ± 0.4 | 4.38 ± 0.04 | 9.47 ± 0.03 | > 50 | 6.145 | 7.982 | 0.070 | 131 to 134 |  |  |  |  |
| CCOP(=O)(C=C(C)C1CCC2(C(=O)O)CCC3(C)C(CCC4C5(C)CCC(=O)C(C)(C)C5CCC43C)C12)OCC (centres unmarked) [R=29-P(O)(OC2H5)2, R1=O=, reference compound] |  |  |  |  |  |  |  |  | 45.5 ± 3.72 | 1.64 ± 0.18 |  |  |
| C#CC(=O)OC[C@]12CC[C@@H](C(=C)COP(=O)(OCC)OCC)C1C1CCC3[C@@]4(C)CC[C@H](OC(=O)C#C)C(C)(C)C4CC[C@@]3(C)[C@]1(C)CC2 (some centres unmarked) [Compound 6a, 30-Diethoxyphosphoryloxy-3,28-dipropynoylbetulin] |  |  | 9.5 ± 0.74 |  | 6.893 | 8.929 | 0.080 | 127 to 130 |  |  |  |  |
| C=C(CP(=O)(OCC)OCC)[C@@H]1CC[C@]2(C(=O)O)CC[C@]3(C)C(CCC4[C@@]5(C)CCC(OC(C)=O)C(C)(C)C5CC[C@]43C)C12 (some centres unmarked) [R=30-P(O)(OC2H5)2, R1=CH3C(O)O, reference compound] |  |  |  |  |  |  |  |  | 30.7 ± 2.17 | 1.29 ± 0.15 |  |  |
| C=C(COP(=O)(OCC)OCC)[C@@H]1CC[C@]2(COC(=O)C#CC3CC3)CC[C@]3(C)C(CCC4[C@@]5(C)CC[C@H](O)C(C)(C)C5CC[C@]43C)C12 (some centres unmarked) [Compound 7c, 28-(2-Cyclopropylpropynoyl)-30-diethoxyphosphoryloxybetulin] | 11.9 ± 0.52 | 6.29 ± 0.12 | > 50 | 9.11 ± 0.39 | 5.587 | 7.277 | 0.064 | 133 to 134 |  |  |  |  |
| C=C(COP(=O)(OCC)OCC)[C@@H]1CC[C@]2(C(=O)O)CC[C@]3(C)C(CCC4[C@@]5(C)CCC(=O)C(C)(C)C5CC[C@]43C)C12 (some centres unmarked) [Compound 8] |  |  |  |  |  |  |  |  | 45.7 ± 6.85 | 45.8 ± 5.27 | no activity | no activity |
| C#CCOC(=O)OC[C@]12CC[C@@H](C(=C)COP(=O)(OCC)OCC)C1C1CCC3[C@@]4(C)CC[C@H](OC(=O)OCC#C)C(C)(C)C4CC[C@@]3(C)[C@]1(C)CC2 (some centres unmarked) [Compound 6e, 30-Diethoxyphosphoryloxy-3,28-dipropargyloxycarbonyloxybetulin] | 11.4 ± 0.76 | 9.23 ± 0.57 | > 50 |  | 6.490 | 8.419 | 0.076 | 129 to 131 |  |  |  |  |
| C=C(CP(=O)(OCC)OCC)[C@@H]1CC[C@]2(C(=O)O)CC[C@]3(C)C(CCC4[C@@]5(C)CCC(O)C(C)(C)C5CC[C@]43C)C12 (some centres unmarked) [R=30-P(O)(OC2H5)2, R1=OH, reference compound] |  |  |  |  |  |  |  |  | > 50 | > 50 |  |  |

— article PMC7866984, “Molecular Structure, In Vitro Anticancer Study and Molecular Docking of New Phosphate Derivatives of Betulin” (Molecules, 2021)
